# Laboratory results published in ChEMBL document CHEMBL3272085, “Quantitative structure-activity relationships. 2. A mixed approach, based on Hansch and Free-Wilson Analysis” (1976).
# What was measured:
# Format in all cases: functional
# Rattus norvegicus = organism: Rattus norvegicus; test: Thyroxine-like activity in rat by antigoiter assay relative to control
# Staphylococcus aureus = test: Antimicrobial activity against Staphylococcus aureus
# Aspergillus niger = test: Antimicrobial activity against Aspergillus niger
# Micrococcus luteus = test: Antimicrobial activity against Sarcina lutea
# Wickerhamomyces anomalus = test: Antimicrobial activity against Hansenula anomala
# Enterococcus faecalis = test: Antimicrobial activity against Streptococcus faecalis
# Bacillus subtilis = test: Antimicrobial activity against Bacillus subtilis
# Bacillus cereus = test: Antimicrobial activity against Bacillus cereus
compound,measurement,setting,value
Cc1cc(C[C@H](N)C(=O)O)cc(C)c1Oc1ccc(O)c(C(C)C)c1,Activity,Rattus norvegicus,18%
same,log(activity),Rattus norvegicus,1.26
CCCCCCCCCCCCCCCCCC[N+](C)(C)Cc1ccccc1,log(1/C),Staphylococcus aureus,3.34
CC(C)c1cc(Oc2c(Br)cc(C[C@H](N)C(=O)O)cc2Br)ccc1O,Activity,Rattus norvegicus,450%
same,log(activity),Rattus norvegicus,2.65
Oc1ccccc1C1CCCCC1,log(1/C),Aspergillus niger,4
Cc1cc(C[C@H](N)C(=O)O)cc(I)c1Oc1ccc(O)c(I)c1,Activity,Rattus norvegicus,40%
same,log(activity),Rattus norvegicus,1.6
N[C@@H](Cc1cc(I)c(Oc2ccc(O)cc2)c(I)c1)C(=O)O,Activity,Rattus norvegicus,10%
same,log(activity),Rattus norvegicus,1
Cc1ccc(C(C)(C)C)c(O)c1,log(1/C),Aspergillus niger,3.7
CCCCCCCCCC[N+](C)(C)Cc1ccccc1,log(1/C),Staphylococcus aureus,2.79
Cc1cc(C)cc(O)c1,log(1/C),Aspergillus niger,3.26
Cc1cc(Cl)ccc1O,log(1/C),Aspergillus niger,3.7
CC(C)c1ccccc1O,log(1/C),Aspergillus niger,3.35
Cc1cccc(C)c1O,log(1/C),Aspergillus niger,3.35
CCCCCCCCCCCC[N+](C)(C)Cc1ccc(Cl)cc1,log(1/C),Staphylococcus aureus,4.04
C=C(C)C(=O)Oc1ccccc1,log(1/C),Staphylococcus aureus,2.89
same,log(1/C),Micrococcus luteus,2.89
same,log(1/C),Wickerhamomyces anomalus,2.89
same,log(1/C),Enterococcus faecalis,2.89
same,log(1/C),Bacillus subtilis,2.89
same,log(1/C),Bacillus cereus,2.89
C=C(C)C(=O)Oc1ccccc1Cl,log(1/C),Staphylococcus aureus,3.08
same,log(1/C),Micrococcus luteus,3.08
same,log(1/C),Wickerhamomyces anomalus,3.28
same,log(1/C),Enterococcus faecalis,3.08
same,log(1/C),Bacillus subtilis,3.08
same,log(1/C),Bacillus cereus,3.08
C=C(C)C(=O)Oc1ccc(Cl)cc1,log(1/C),Staphylococcus aureus,3.12
same,log(1/C),Micrococcus luteus,3.25
same,log(1/C),Wickerhamomyces anomalus,3.25
same,log(1/C),Enterococcus faecalis,3.25
same,log(1/C),Bacillus subtilis,3.25
same,log(1/C),Bacillus cereus,3.25
C=C(C)C(=O)Oc1cccc(Cl)c1,log(1/C),Staphylococcus aureus,2.91
same,log(1/C),Micrococcus luteus,3.12
same,log(1/C),Wickerhamomyces anomalus,3.12
same,log(1/C),Enterococcus faecalis,2.77
same,log(1/C),Bacillus subtilis,2.91
same,log(1/C),Bacillus cereus,2.91
C=C(C)C(=O)Oc1ccc(Cl)cc1Cl,log(1/C),Staphylococcus aureus,3.49
same,log(1/C),Micrococcus luteus,3.49
same,log(1/C),Wickerhamomyces anomalus,3.49
same,log(1/C),Enterococcus faecalis,3.49
same,log(1/C),Bacillus subtilis,3.8
same,log(1/C),Bacillus cereus,3.49
Cc1cc(Cl)cc(C)c1O,log(1/C),Aspergillus niger,4.4
CC(C)c1cc(Cl)ccc1O,log(1/C),Aspergillus niger,4.3
Cc1cc(O)c(C(C)(C)C)cc1Cl,log(1/C),Aspergillus niger,4.3
Oc1ccc(Cl)cc1C1CCCCC1,log(1/C),Aspergillus niger,4.4
Oc1ccc(Cl)cc1-c1ccccc1,log(1/C),Aspergillus niger,4.52
CCCCCCCC[N+](C)(C)Cc1ccccc1Cl,log(1/C),Staphylococcus aureus,2.02
CCCCCCCCCC[N+](C)(C)Cc1ccccc1Cl,log(1/C),Staphylococcus aureus,3.41
CCCCCCCCCCCC[N+](C)(C)Cc1ccccc1Cl,log(1/C),Staphylococcus aureus,4.14
CCCCCCCCCCCCCC[N+](C)(C)Cc1ccccc1Cl,log(1/C),Staphylococcus aureus,4.14
CCCCCCCCCCCCCCCC[N+](C)(C)Cc1ccccc1Cl,log(1/C),Staphylococcus aureus,3.74
CCCCCCCCCCCCCCCCCC[N+](C)(C)Cc1ccccc1Cl,log(1/C),Staphylococcus aureus,3.43
CCCCCCCC[N+](C)(C)Cc1ccc(Cl)cc1,log(1/C),Staphylococcus aureus,2.6
CCCCCCCCCC[N+](C)(C)Cc1ccc(Cl)cc1,log(1/C),Staphylococcus aureus,3.6
CCCCCCCCCCCCCC[N+](C)(C)Cc1ccc(Cl)cc1,log(1/C),Staphylococcus aureus,4.34
CCCCCCCCCCCCCCCC[N+](C)(C)Cc1ccc(Cl)cc1,log(1/C),Staphylococcus aureus,3.85
CCCCCCCCCCCCCCCCCC[N+](C)(C)Cc1ccc(Cl)cc1,log(1/C),Staphylococcus aureus,3.17
CCCCCCCC[N+](C)(C)Cc1ccc([N+](=O)[O-])cc1,log(1/C),Staphylococcus aureus,2.11
CCCCCCCCCC[N+](C)(C)Cc1ccc([N+](=O)[O-])cc1,log(1/C),Staphylococcus aureus,3.11
CCCCCCCCCCCC[N+](C)(C)Cc1ccc([N+](=O)[O-])cc1,log(1/C),Staphylococcus aureus,4.2
CCCCCCCCCCCCCC[N+](C)(C)Cc1ccc([N+](=O)[O-])cc1,log(1/C),Staphylococcus aureus,4.23
CCCCCCCCCCCCCCCC[N+](C)(C)Cc1ccc([N+](=O)[O-])cc1,log(1/C),Staphylococcus aureus,4
CCCCCCCCCCCCCCCCCC[N+](C)(C)Cc1ccc([N+](=O)[O-])cc1,log(1/C),Staphylococcus aureus,3.46
CCCCCCCC[N+](C)(C)Cc1ccc(Cl)cc1Cl,log(1/C),Staphylococcus aureus,2.63
CCCCCCCCCC[N+](C)(C)Cc1ccc(Cl)cc1Cl,log(1/C),Staphylococcus aureus,3.65
CCCCCCCCCCCC[N+](C)(C)Cc1ccc(Cl)cc1Cl,log(1/C),Staphylococcus aureus,4.25
CCCCCCCCCCCCCC[N+](C)(C)Cc1ccc(Cl)cc1Cl,log(1/C),Staphylococcus aureus,4.28
CCCCCCCCCCCCCCCC[N+](C)(C)Cc1ccc(Cl)cc1Cl,log(1/C),Staphylococcus aureus,3.41
CCCCCCCCCCCCCCCCCC[N+](C)(C)Cc1ccc(Cl)cc1Cl,log(1/C),Staphylococcus aureus,3.3
CCCCCCCC[N+](C)(C)Cc1ccc(Cl)c(Cl)c1,log(1/C),Staphylococcus aureus,2.92
CCCCCCCCCC[N+](C)(C)Cc1ccc(Cl)c(Cl)c1,log(1/C),Staphylococcus aureus,3.79
CCCCCCCCCCCC[N+](C)(C)Cc1ccc(Cl)c(Cl)c1,log(1/C),Staphylococcus aureus,4.36
CCCCCCCCCCCCCC[N+](C)(C)Cc1ccc(Cl)c(Cl)c1,log(1/C),Staphylococcus aureus,4.04
CCCCCCCCCCCCCCCC[N+](C)(C)Cc1ccc(Cl)c(Cl)c1,log(1/C),Staphylococcus aureus,3.39
CCCCCCCCCCCCCCCCCC[N+](C)(C)Cc1ccc(Cl)c(Cl)c1,log(1/C),Staphylococcus aureus,3.11
CCCCCCCCCCCC[N+](C)(C)Cc1ccc(OC)c(OC)c1,log(1/C),Staphylococcus aureus,3.71
CCCCCCCCCCCCCC[N+](C)(C)Cc1ccc(OC)c(OC)c1,log(1/C),Staphylococcus aureus,4.11
CCCCCCCCCCCCCCCC[N+](C)(C)Cc1ccc(OC)c(OC)c1,log(1/C),Staphylococcus aureus,3.41
CCCCCCCC[N+](C)(C)Cc1ccc2c(c1)OCO2,log(1/C),Staphylococcus aureus,2.04
CCCCCCCCCC[N+](C)(C)Cc1ccc2c(c1)OCO2,log(1/C),Staphylococcus aureus,3.08
CCCCCCCCCCCC[N+](C)(C)Cc1ccc2c(c1)OCO2,log(1/C),Staphylococcus aureus,4
CCCCCCCCCCCCCC[N+](C)(C)Cc1ccc2c(c1)OCO2,log(1/C),Staphylococcus aureus,4.23
CCCCCCCCCCCCCCCC[N+](C)(C)Cc1ccc2c(c1)OCO2,log(1/C),Staphylococcus aureus,4.2
CCCCCCCCCCCCCCCCCC[N+](C)(C)Cc1ccc2c(c1)OCO2,log(1/C),Staphylococcus aureus,3.23
CCCCCCCCCCCC[N+](C)(C)Cc1cc([N+](=O)[O-])ccc1O,log(1/C),Staphylococcus aureus,2.7
N[C@@H](Cc1cc(I)c(Oc2ccc(O)c(O)c2)c(I)c1)C(=O)O,Activity,Rattus norvegicus,1.5%
same,log(activity),Rattus norvegicus,0.18
N[C@@H](Cc1cc(I)c(Oc2ccc(O)c(F)c2)c(I)c1)C(=O)O,Activity,Rattus norvegicus,8%
same,log(activity),Rattus norvegicus,0.9
N[C@@H](Cc1cc(I)c(Oc2ccc(O)c(Br)c2)c(I)c1)C(=O)O,Activity,Rattus norvegicus,138%
same,log(activity),Rattus norvegicus,2.14
Cc1cc(Oc2c(I)cc(C[C@H](N)C(=O)O)cc2I)ccc1O,Activity,Rattus norvegicus,126%
same,log(activity),Rattus norvegicus,2.1
CCc1cc(Oc2c(I)cc(C[C@H](N)C(=O)O)cc2I)ccc1O,Activity,Rattus norvegicus,506%
same,log(activity),Rattus norvegicus,2.7
CC(C)c1cc(Oc2c(I)cc(C[C@H](N)C(=O)O)cc2I)ccc1O,Activity,Rattus norvegicus,868%
same,log(activity),Rattus norvegicus,2.94
CC(C)(C)c1cc(Oc2c(I)cc(C[C@H](N)C(=O)O)cc2I)ccc1O,Activity,Rattus norvegicus,120%
same,log(activity),Rattus norvegicus,2.08
CC(C)Cc1cc(Oc2c(I)cc(C[C@H](N)C(=O)O)cc2I)ccc1O,Activity,Rattus norvegicus,60%
same,log(activity),Rattus norvegicus,1.78
N[C@@H](Cc1cc(I)c(Oc2ccc(O)c(-c3ccccc3)c2)c(I)c1)C(=O)O,Activity,Rattus norvegicus,32%
same,log(activity),Rattus norvegicus,1.51
N[C@@H](Cc1cc(I)c(Oc2cc(F)c(O)c(F)c2)c(I)c1)C(=O)O,Activity,Rattus norvegicus,1.8%
same,log(activity),Rattus norvegicus,0.26
N[C@@H](Cc1cc(I)c(Oc2cc(Cl)c(O)c(Cl)c2)c(I)c1)C(=O)O,Activity,Rattus norvegicus,0.9%
same,log(activity),Rattus norvegicus,-0.05
N[C@@H](Cc1cc(I)c(Oc2cc(Br)c(O)c(Br)c2)c(I)c1)C(=O)O,Activity,Rattus norvegicus,10%
same,log(activity),Rattus norvegicus,1
N[C@@H](Cc1cc(I)c(Oc2cc(F)c(O)c(I)c2)c(I)c1)C(=O)O,Activity,Rattus norvegicus,28%
same,log(activity),Rattus norvegicus,1.45
N[C@@H](Cc1cc(Br)c(Oc2ccc(O)c(Br)c2)c(Br)c1)C(=O)O,Activity,Rattus norvegicus,44%
same,log(activity),Rattus norvegicus,1.64
N[C@@H](Cc1cc(Br)c(Oc2ccc(O)c(I)c2)c(Br)c1)C(=O)O,Activity,Rattus norvegicus,130%
same,log(activity),Rattus norvegicus,2.11
N[C@@H](Cc1cc(Br)c(Oc2cc(Br)c(O)c(Br)c2)c(Br)c1)C(=O)O,Activity,Rattus norvegicus,0.51%
same,log(activity),Rattus norvegicus,-0.29
N[C@@H](Cc1cc(Br)c(Oc2cc(I)c(O)c(I)c2)c(Br)c1)C(=O)O,Activity,Rattus norvegicus,12.5%
same,log(activity),Rattus norvegicus,1.1
Cc1cc(C[C@H](N)C(=O)O)cc(C)c1Oc1ccc(O)c(I)c1,Activity,Rattus norvegicus,5%
same,log(activity),Rattus norvegicus,0.7
Cc1cc(Oc2c(C)cc(C[C@H](N)C(=O)O)cc2C)ccc1O,Activity,Rattus norvegicus,3%
same,log(activity),Rattus norvegicus,0.48
Cc1cc(Oc2c(C)cc(C[C@H](N)C(=O)O)cc2C)cc(C)c1O,Activity,Rattus norvegicus,2%
same,log(activity),Rattus norvegicus,0.3
N[C@@H](Cc1cc(Cl)c(Oc2cc(I)c(O)c(I)c2)c(Cl)c1)C(=O)O,Activity,Rattus norvegicus,0.1%
same,log(activity),Rattus norvegicus,-1
N[C@@H](Cc1cc(I)c(Oc2ccc(O)c(Cl)c2)c(I)c1)C(=O)O,Activity,Rattus norvegicus,27%
same,log(activity),Rattus norvegicus,1.43
Oc1ccccc1-c1ccccc1 [2-PHENYLPHENOL],log(1/C),Aspergillus niger,4.1
CCCCCCCCCCCC[N+](C)(C)Cc1ccccc1 [BENZODODECINIUM],log(1/C),Staphylococcus aureus,3.74
CCCCCCCCCCCCCCCC[N+](C)(C)Cc1ccccc1 [CETALKONIUM],log(1/C),Staphylococcus aureus,3.92
Cc1cc(O)ccc1Cl [CHLOROCRESOL],log(1/C),Aspergillus niger,3.7
Cc1cc(O)cc(C)c1Cl [CHLOROXYLENOL],log(1/C),Aspergillus niger,4.22
N[C@@H](Cc1cc(I)c(Oc2cc(I)c(O)c(I)c2)c(I)c1)C(=O)O [LEVOTHYROXINE],Activity,Rattus norvegicus,100%
same,log(activity),Rattus norvegicus,2
N[C@@H](Cc1cc(I)c(Oc2ccc(O)c(I)c2)c(I)c1)C(=O)O [LIOTHYRONINE],Activity,Rattus norvegicus,545%
same,log(activity),Rattus norvegicus,2.74
Cc1cccc(O)c1 [METACRESOL],log(1/C),Aspergillus niger,2.68
CCCCCCCCCCCCCC[N+](C)(C)Cc1ccccc1 [MIRISTALKONIUM ION],log(1/C),Staphylococcus aureus,4.17
Cc1ccccc1O [ORTHOCRESOL],log(1/C),Aspergillus niger,2.7
Oc1ccc(Cl)cc1 [PARACHLOROPHENOL],log(1/C),Aspergillus niger,3.35
Oc1ccccc1 [PHENOL],log(1/C),Aspergillus niger,2.35
